Values after ≈ are worked out from the molar mass of the structure shown. Like-named read-outs stand apart in the source and are kept apart here.
Tests used:
[1] = Solubility in water, methanol, cyclohexane and ethyl acetate by HPLC; assay type: physicochemical
Protocol: Mobile phase: acetonitrile-methanol (1 : 1); flow rate: 1.0 ml min^−1; injection volume: 20 µl; wavelength: 230 nm or 254 nm; column temperature: 25°C.
Five millilitres of water, methanol, cyclohexane and ethyl acetate was added to test tubes, and then samples (DD4 or DD5) were added. These solutions were shaken at constant temperature (37 ± 0.1)°C for 48 h. The supernatant was taken to determine its solubility with HPLC [14]. Solutions of tested sample beyond the linear concentration range were diluted with methanol for determination.

[2] = test system: human aortic vascular smooth muscle cells (HAVSMCs); experiment: Cell metabolism in HAVSMCs by HPLC-MS; assay type: in vitro ADME; conditions: for metabolite identified (chemical name): HAVSMC lysate, 24 h incubation, HPLC-MS negative ion mode
Protocol: HAVSMCs were obtained from resuscitation in cryopreservation tubes. HAVSMCs at passages 3–10 were seeded at a density of 10^5 in 6-well plates, 2 ml per well. The cells were cultured at 37°C in a 5% carbon dioxide incubator for 24 h to adhere to the cell wall; cells were cultured in serum-free DMEM for 24 h. The cells were synchronized, the supernatant was carefully aspirated and different concentrations of drug solution were added to the DMEM culture medium containing 10% serum. Equal amounts of DMEM culture medium without drugs were added to the blank group. Each group was set up in triplicate and further cultured. The cultures were terminated at 0.5, 1, 6, 12, 24 or 48 h. Cell culture supernatants were collected and stored at −80°C for further analysis.
Mobile phase: methanol-formic acid (1 : 1); flow rate: 0.5 ml min^−1; injection volume: 10 µl; wavelength: 254 nm; column temperature: 25°C.
A triple quadrupole tandem precision mass spectrometer (Agilent 6430) with an […] source and a negative ion mode was used for precise determination. The full mass spectrum data were obtained in the range of m/z 50–1000. The optimal mass spectrum parameters were as follows: the capillary voltage was 4.0 kV; the injection cone voltage was 35 V; the desolvation gas flow (N2) rate was 900 l h^−1; the injection cone gas flow (N2) rate was 50 l h^−1; the desolvation temperature was 350°C; the ion source temperature was 150°C; the collision gas in collision induced dissociation (CID) mode was helium with high purity; the inlet pressure was set at 40 psi; the CID collision energy of the standard was 5–35 eV and the cracking voltage was 135 V.
The cell supernatant was thawed and vortexed for 0.5 min. Cell supernatant (50 µl) and […] (50 µl) were added to a 2 ml centrifuge tube and vortexed for 3 min. Ammonium dihydrogen phosphate (100 µl, 0.4%) and 1 ml of ethyl acetate were added, and the sample was vortexed for 3 min. The mixture was centrifuged at 3000 r min^−1 for 10 min. The supernatant (95 µl) was aspirated and dried by N2 flow. […] (500 µl) was added and the sample was vortexed for 0.5 min. After filtration over a 0.45 µm organic membrane, HPLC-MS analysis was carried out.
Cells from the −80°C stock were thawed at room temperature, and 1 ml of thawed cell lysate was added into each well of a 6-well plate. From each group, 0.5 ml of cell lysate was taken; 50 µl of […], 100 µl of ammonium dihydrogen phosphate (0.4%) and 1 ml of ethyl acetate were added and samples were vortexed for 3 min. Lysate (95 µl) was aspirated and dried by N2 flow. […] (500 µl) was added and samples were vortexed for 0.5 min. After filtration over a 0.45 µm organic membrane, HPLC-MS analysis was carried out.

Structure (SMILES): CCOc1ccc2c(=O)c(-c3ccc(OS(=O)(=O)c4ccc5ccccc5c4)cc3)coc2c1 [DD5]
- solubility at 48 h ([1]; organic solvent or mixture, thermodynamic from solid, methanol, 37 °C, shaken 48 h, HPLC, read-out: solubility methanol): 2470 ± 72.4 µg/mL (≈ 5230 µM)
- solubility at 48 h ([1]; thermodynamic from solid, water, 37 °C, shaken 48 h, HPLC, read-out: solubility water): < 0.059 µg/mL
- solubility in water ([1]; water, 37 °C): too poor to be detected
- solubility at 48 h ([1]; water, Table 5, read-out: solubility in water): < 0.059 µg/mL
- metabolite identified (chemical name) ([2]; metabolite DAI): daidzein
- metabolite identified (chemical name) ([2]; metabolite M2): daidzein-4'-naphthalene sulphonate
- metabolite identified (chemical name) ([2]; metabolite M4 or/and M4a): daidzein-4'-glucoside or daidzein-7-glucoside
- metabolite identified (chemical name) ([2]; metabolite M5): 7-ethyldaidzein
- metabolite identified (chemical name) ([2]; metabolite M6): daidzein-7-ethyl-4'-glucoside
- metabolite identified (chemical name) ([2]; metabolite M7): daidzein-7-ethyl-4'-sulphonic acid
- metabolites found in cell lysate ([2]; HAVSMCs incubated 24 h, HPLC-MS, also found in supernatant): Six metabolites were found
- redox products in HAVSMCs ([2]; preliminary analysis of metabolic components): no redox products

Source: PMC7890489, “Study on pharmacological properties and cell absorption metabolism of novel daidzein napsylates” (Royal Society Open Science, 2021)
